Experimental data published in patent US12404295B2, “(Hetero)aryl-methyl-thio-beta-D-galactopyranoside derivatives” (Idorsia Pharmaceuticals Ltd, priority 2019, dated 2025).
Where two headings read alike, the source gives them in different places.

Experiments:
human Gal-1 (hGal-1) = human Gal-1 (hGal-1) (Homo sapiens (Human), UniProt P09382); assay: competitive binding assay: biotinylated hGal-1 binding to microplate-adsorbed asialofetuin (ASF); details: Table 15; read-out: IC50 (Galectin-1 inhibition)
human Gal-1 (hGal-1), sequence (P09382 whole entry): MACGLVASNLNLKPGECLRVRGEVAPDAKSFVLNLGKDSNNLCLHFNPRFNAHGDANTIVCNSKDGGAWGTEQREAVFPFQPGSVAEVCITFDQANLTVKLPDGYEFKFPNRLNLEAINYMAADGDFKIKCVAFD
How it was run: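 Biotinylated human Gal-1 (300-1000 ng/mL) competes with serially diluted compound for binding to ASF-coated plates, 3 h at 4° C. Bound protein detected with streptavidin-peroxidase and ABTS substrate (spectrophotometric). IC50 given as mean of several measurements.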

human Gal-3 (hGal-3) = human Gal-3 (hGal-3) (Homo sapiens (Human), UniProt P17931); assay: competitive binding assay: biotinylated hGal-3 binding to microplate-adsorbed asialofetuin (ASF)
human Gal-3 (hGal-3), sequence (P17931 whole entry): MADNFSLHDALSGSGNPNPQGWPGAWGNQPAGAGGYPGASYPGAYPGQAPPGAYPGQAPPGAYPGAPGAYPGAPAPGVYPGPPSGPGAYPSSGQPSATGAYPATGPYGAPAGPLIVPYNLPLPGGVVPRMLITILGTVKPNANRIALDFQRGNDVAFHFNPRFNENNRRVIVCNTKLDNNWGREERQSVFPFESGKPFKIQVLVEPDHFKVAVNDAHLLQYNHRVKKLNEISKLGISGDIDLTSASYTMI
How it was run: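 Peroxidase activity developed with ABTS measures the biotinylated hGal-3 remaining on the asialofetuin-coated surface after competition with test compounds. Incubation ran 3 h at 4 °C, followed by 1 h with streptavidin-peroxidase at 80 ng/mL.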

[1] = Gal-3 inhibition, binding of biotinylated hGal-3 to ASF, mean values, read-out: IC50

| SMILES | IC50 (human Gal-1 (hGal-1)) [µM] | IC50 (human Gal-3 (hGal-3); [1]) [µM] | IC50 (human Gal-3 (hGal-3); Table 5, read-out: IC50 (Gal-3 inhibition)) [µM] |
| --- | --- | --- | --- |
| CC(C)(O)[C@@H](S[C@@H]1O[C@H](CO)[C@H](O)[C@H](n2cc(-c3cc(F)c(F)c(F)c3)nn2)[C@H]1O)c1ccccc1-c1ccccc1 [Example 2.31.110S., (2S,3R,4S,5R,6R)-2-(((S)-1-([1,1′-Biphenyl]-2-yl)-2-hydroxy-2-methylpropyl)thio)-6-(hydroxymethyl)-4-(4-(3,4,5-trifluorophenyl)-1H-1,2,3-triazol-1-yl)tetrahydro-2H-pyran-3,5-diol] | 16.7 | 4.9 |  |
| CC(C)c1cccnc1[C@@H](S[C@@H]1O[C@H](CO)[C@H](O)[C@H](n2cc(-c3cc(F)c(F)c(F)c3)nn2)[C@H]1O)C1(O)CCC(F)(F)CC1 [Example 2.44.132R., (2S,3R,4S,5R,6R)-2-(((R)-(4,4-Difluoro-1-hydroxycyclohexyl)(3-isopropylpyridin-2-yl)methyl)thio)-6-(hydroxymethyl)-4-(4-(3,4,5-trifluorophenyl)-1H-1,2,3-triazol-1-yl)tetrahydro-2H-pyran-3,5-diol] | 0.05 | 0.05 |  |
| OC[C@H]1O[C@@H](SC(c2ncccc2C(F)(F)F)C2(O)CCOCC2)[C@H](O)[C@@H](n2cc(-c3cc(F)c(F)c(F)c3)nn2)[C@H]1O (stereo partly drawn) [Example 2.41.125., (2R,3R,4S,5R,6S)-2-(Hydroxymethyl)-6-(((4-hydroxytetrahydro-2H-pyran-4-yl)(3-(trifluoromethyl)pyridin-2-yl)methyl)thio)-4-(4-(3,4,5-trifluorophenyl)-1H-1,2,3-triazol-1-yl)tetrahydro-2H-pyran-3,5-diol] | 5.7 |  | 0.25 |
